Reference: the NIST ThermoML archive (doi:10.1016/j.jct.2011.02.018)

Experiment: xn = mol fraction of the nth substance listed
Details: 101 kPa, Liquid; for viscosity: Concentric cylinders viscometry; for mass density: Vibrating tube method

COC(C)(C)C [2-methoxy-2-methylpropane] + CCCCCCO
Details	mass density, 303.15 K [kg/m3]	mass density, 308.15 K [kg/m3]	viscosity, 303.15 K [mPa·s]	viscosity, 308.15 K [mPa·s]
x1 = 0.0103	811.1	807.46	3.832	3.31
x1 = 0.0204	810.49	806.85	3.714	3.214
x1 = 0.0304	809.9	806.24	3.6	3.12
x1 = 0.0408	809.27	805.6	3.486	3.026
x1 = 0.0495	808.75	805.07	3.395	2.951
x1 = 0.0625	807.96	804.26	3.259	2.839
x1 = 0.0705	807.44	803.74	3.185	2.779
x1 = 0.0799	806.85	803.14	3.09	2.699
x1 = 0.0912	806.14	802.42	2.991	2.621
x1 = 0.0994	805.66	801.92	2.913	2.549
x1 = 0.1508	802.39	798.59	2.493	2.198
x1 = 0.205	798.86	795	2.173	1.892
x1 = 0.2579	795.26	791.32	1.848	1.634
x1 = 0.3	792.3	788.3	1.636	1.468
x1 = 0.3574	788.18	784.11	1.392	1.257
x1 = 0.4012	784.94	780.8	1.239	1.122
x1 = 0.4501	781.24	777.03	1.09	0.9929
x1 = 0.5028	777.12	772.81	0.9538	0.8711
x1 = 0.5637	772.16	767.75	0.8183	0.7502
x1 = 0.598	769.31	764.84	0.7488	0.6862
x1 = 0.6508	764.78	760.21	0.6592	0.6063
x1 = 0.7	760.44	755.77	0.5829	0.5443
x1 = 0.7493	755.96	751.19	0.523	0.481
x1 = 0.7994	751.14	746.31	0.4676	0.4306
x1 = 0.8514	746.09	741.09	0.4172	0.389
x1 = 0.903	740.79	735.68	0.3679	0.3464
x1 = 0.9095	740.12	735	0.3635	0.3436
x1 = 0.9204	738.99	733.83	0.3535	0.3351
x1 = 0.9294	738	732.83	0.3485	0.3282
x1 = 0.9397	736.89	731.69	0.3396	0.3202
x1 = 0.9495	735.83	730.61	0.3326	0.3124
x1 = 0.9589	734.79	729.54	0.3253	0.3083
x1 = 0.969	733.68	728.41	0.3206	0.3023
x1 = 0.9791	732.55	727.25	0.3139	0.2969
x1 = 0.9899	731.33	726.01	0.3069	0.2898
